Experimental data reported in the CheMixHub ionic liquid set.

Test: xn = mol fraction of the nth substance listed

CCCC[P+](CC)(CC)CC.Cc1ncc([N+](=O)[O-])[n-]1 + COCCOCCOCCOCCOC
100 kPa
Conditions | viscosity [mPa·s]
278.15 K, x2 = 0.048 | 1540
283.15 K, x2 = 0.102 | 631
283.15 K, x2 = 0.401 | 99
283.15 K, x2 = 0.501 | 57
298.15 K, x2 = 0.102 | 208
298.15 K, x2 = 0.201 | 130
308.15 K, x2 = 0.048 | 159
313.15 K, x2 = 0.102 | 90

CCCn1cc[n+](C)c1C.O=[N+]([O-])c1cn[n-]c1 + COCCOCCOCCOCCOC
100 kPa
Conditions | viscosity [mPa·s]
278.15 K, x2 = 0.399 | 252
283.15 K, x2 = 0.1 | 1670
283.15 K, x2 = 0.201 | 743
283.15 K, x2 = 0.499 | 88
288.15 K, x2 = 0.1 | 929
288.15 K, x2 = 0.201 | 449
298.15 K, x2 = 0.399 | 62
313.15 K, x2 = 0.201 | 76

CS(C)=O + COCCOCCn1cc[n+](CCC#N)c1.O=S(=O)([N-]S(=O)(=O)C(F)(F)F)C(F)(F)F
101.3 kPa, x2 = 0
Conditions | electrical conductivity [S/m]
293.15 K | 0.000587
303.15 K | 0.000881
313.15 K | 0.00118
323.15 K | 0.00148

CCCC[N+](CCCC)(CCCC)CCCC.[Cl-] + CSCC[C@H](N)C(=O)O
101 kPa
Conditions | electrical conductivity, x2 = 0.08333 [S/m] | electrical conductivity, x2 = 0.09091 [S/m] | electrical conductivity, x2 = 0.1 [S/m] | viscosity, x2 = 0.08333 [mPa·s] | viscosity, x2 = 0.09091 [mPa·s] | viscosity, x2 = 0.1 [mPa·s]
303.15 K | 0.0061 | 0.0165 | 0.0113 | 2200 | 2300 | 2400
313.15 K | 0.016 | 0.026 | 0.022 | 1400 | 1570 | 1560
323.15 K | 0.0259 | 0.0418 | 0.0313 | 415 | 530 | 480
333.15 K | 0.0749 | 0.0929 | 0.0837 | 221 | 295 | 290
343.15 K | 0.107 | 0.129 | 0.12 | 119 | 157 | 148
353.15 K | 0.14 | 0.17 | 0.15 | 70 | 94 | 87

CCCC[N+](CCCC)(CCCC)CCCC.[Cl-] + C[C@@H](O)[C@H](N)C(=O)O
101 kPa
Conditions | electrical conductivity, x2 = 0.09091 [S/m] | electrical conductivity, x2 = 0.1 [S/m] | electrical conductivity, x2 = 0.1111 [S/m] | viscosity, x2 = 0.09091 [mPa·s] | viscosity, x2 = 0.1 [mPa·s] | viscosity, x2 = 0.1111 [mPa·s]
303.15 K | 0.0086 | 0.0049 | 0.0067 | 223 | 179 | 1020
313.15 K | 0.0157 | 0.0117 | 0.0135 | 131 | 104 | 630
323.15 K | 0.0279 | 0.0199 | 0.0236 | 73 | 68 | 322
333.15 K | 0.039 | 0.0311 | 0.036 | 46 | 43 | 186
343.15 K | 0.045 | 0.0402 | – | 34 | 31 | 109
353.15 K | 0.0583 | 0.0516 | 0.0569 | 24 | 24 | 63

CCCC[n+]1ccn(C)c1.[Br-] + C[C@@H](O)[C@H](N)C(=O)O + O
viscosity [mPa·s], 101.3 kPa
Conditions | 293.15 K | 298.15 K | 303.15 K | 308.15 K | 313.15 K
x2 = 0, x1 = 0.0007203 | – | – | – | – | 0.674
x2 = 0.0003632, x1 = 0.00072 | 1.028 | 0.918 | 0.825 | 0.748 | 0.682
x2 = 0.0003679, x1 = 0.001439 | 1.053 | 0.943 | 0.85 | 0.773 | 0.707
x2 = 0.0007261, x1 = 0.0007198 | 1.034 | 0.923 | 0.829 | 0.751 | 0.685
x2 = 0.0007318, x1 = 0.001438 | 1.059 | 0.948 | 0.854 | 0.776 | 0.71
x2 = 0.001087, x1 = 0.0007195 | 1.038 | 0.927 | 0.834 | 0.755 | 0.689
x2 = 0.001097, x1 = 0.001438 | 1.064 | 0.952 | 0.859 | 0.78 | 0.714
x2 = 0.001451, x1 = 0.0007192 | 1.043 | 0.932 | 0.838 | 0.76 | 0.693
x2 = 0.001461, x1 = 0.001437 | 1.07 | 0.957 | 0.863 | 0.785 | 0.718
x2 = 0.001813, x1 = 0.000719 | 1.048 | 0.936 | 0.843 | 0.764 | 0.698
x2 = 0.001828, x1 = 0.001437 | 1.075 | 0.961 | 0.868 | 0.789 | 0.723
x2 = 0.002175, x1 = 0.0007187 | 1.053 | 0.941 | 0.847 | 0.769 | 0.702
x2 = 0.002191, x1 = 0.001436 | 1.079 | 0.966 | 0.872 | 0.794 | 0.727
x2 = 0.002537, x1 = 0.0007185 | 1.058 | 0.946 | 0.852 | 0.773 | 0.707
x2 = 0.002557, x1 = 0.001436 | 1.085 | 0.97 | 0.877 | 0.798 | 0.732

CCCCCCCCCCCC[N+](C)(C)Cc1ccccc1.[Cl-] + C[C@H](N)C(=O)O + O
electrical conductivity [S/m], 101 kPa
Conditions | 293.15 K | 298.15 K | 303.15 K | 308.15 K
x2 = 0.0009017, x1 = 0.000273 | 0.0801 | 0.0901 | 0.101 | 0.112
x2 = 0.0009017, x1 = 0.0002923 | 0.0832 | 0.0935 | 0.104 | 0.117
x2 = 0.0009017, x1 = 0.00031 | 0.0859 | 0.0967 | 0.108 | 0.121
x2 = 0.0009017, x1 = 0.0003245 | 0.0882 | 0.0994 | 0.111 | 0.124
x2 = 0.0009018, x1 = 0.0001745 | 0.0636 | 0.0709 | 0.0786 | 0.0867
x2 = 0.0009018, x1 = 0.0002014 | 0.0686 | 0.0767 | 0.0852 | 0.0943
x2 = 0.0009018, x1 = 0.0002282 | 0.0731 | 0.0819 | 0.0911 | 0.101
x2 = 0.0009018, x1 = 0.0002515 | 0.0769 | 0.0862 | 0.096 | 0.107
x2 = 0.0009019, x1 = 5.732e-05 | 0.0227 | 0.0255 | 0.0283 | 0.0312
x2 = 0.0009019, x1 = 7.956e-05 | 0.0312 | 0.0349 | 0.0388 | 0.0427
x2 = 0.0009019, x1 = 0.0001004 | 0.0389 | 0.0437 | 0.0484 | 0.0533
x2 = 0.0009019, x1 = 0.0001231 | 0.0474 | 0.053 | 0.0588 | 0.0647
x2 = 0.0009019, x1 = 0.0001486 | 0.0565 | 0.0633 | 0.0701 | 0.077
x2 = 0.001773, x1 = 8.528e-05 | 0.033 | 0.037 | 0.041 | 0.0452
x2 = 0.001773, x1 = 0.0001054 | 0.0404 | 0.0453 | 0.0502 | 0.0553
x2 = 0.001773, x1 = 0.0001263 | 0.0481 | 0.0538 | 0.0597 | 0.0658
x2 = 0.001773, x1 = 0.00015 | 0.0564 | 0.063 | 0.0698 | 0.077
x2 = 0.001773, x1 = 0.000176 | 0.063 | 0.0702 | 0.0778 | 0.086
x2 = 0.001773, x1 = 0.0002016 | 0.0678 | 0.0756 | 0.084 | 0.0932
x2 = 0.001773, x1 = 0.0002266 | 0.0719 | 0.0805 | 0.0896 | 0.0995
x2 = 0.001773, x1 = 0.0002493 | 0.0756 | 0.0847 | 0.0946 | 0.105
x2 = 0.001773, x1 = 0.0002699 | 0.0789 | 0.0885 | 0.099 | –
x2 = 0.001773, x1 = 0.0002888 | 0.082 | 0.0924 | 0.103 | –
x2 = 0.001773, x1 = 0.0003053 | 0.0849 | 0.0956 | 0.107 | –
x2 = 0.001773, x1 = 0.0003178 | 0.0873 | 0.0979 | 0.11 | –
x2 = 0.001774, x1 = 6.278e-05 | 0.0246 | 0.0276 | 0.0306 | 0.0337

Cc1ccc(S(=O)(=O)O)cc1 + C[N+](C)(C)Cc1ccccc1.[Cl-]
101 kPa, x2 = 0.3
Conditions | electrical conductivity [S/m] | viscosity [mPa·s]
292.97 K | – | 15200
298 K | – | 12900
302.95 K | – | 8733
307.99 K | – | 5078
308.2 K | 0.05721 | –
313.02 K | – | 2889
313.22 K | 0.08258 | –
317.95 K | – | 1701
318.31 K | 0.1275 | –
323.05 K | – | 1092
323.16 K | 0.187 | –
328.06 K | – | 791
328.17 K | 0.2562 | –
332.98 K | – | 452
333.27 K | 0.345 | –

O=C(O)C(=O)O + C[N+](C)(C)Cc1ccccc1.[Cl-]
101 kPa, x2 = 0.5
Conditions | electrical conductivity [S/m] | viscosity [mPa·s]
293.14 K | 0.2104 | –
293.17 K | – | 1971
298.07 K | 0.3284 | –
298.09 K | – | 1362
303.08 K | 0.4611 | –
303.11 K | – | 714
308.09 K | 0.6182 | –
308.12 K | – | 452
312.95 K | – | 266.7
313.1 K | 0.7996 | –
317.96 K | – | 197.3
318.18 K | 1.025 | –
323.06 K | – | 166.6
323.19 K | 1.246 | –
327.98 K | – | 58.6
328.11 K | 1.505 | –
332.99 K | – | 27.7
333.03 K | 1.774 | –

CCCC[n+]1ccn(C)c1.[Br-] + C[NH2+]CCC=C1c2ccccc2CCc2ccccc21.[Cl-] + O
viscosity [mPa·s], 100 kPa
Conditions | 288.15 K | 298.15 K | 308.15 K | 318.15 K
x2 = 0, x1 = 0.0001802 | 1.149 | 0.916 | 0.751 | 0.634
x2 = 0, x1 = 0.0007203 | 1.153 | – | – | 0.64
x2 = 0, x1 = 0.00126 | 1.159 | 0.93 | 0.763 | 0.646
